Data taken from PubChem BioAssay (NCI).
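Assay format: 96-well plates, 48-hour exposure. GI50 is the concentration that inhibits growth by half. TGI denotes the concentration required for complete inhibition of growth.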

Columns and labels:
Experiment in all cases: inhibition of tumour cell growth, NCI panel, 48 h
NCI-H522 lung = test system: NCI-H522 lung
NCI-H23 lung = test system: NCI-H23 lung
U251 CNS = test system: U251 CNS
M14 melanoma = test system: M14 melanoma
HCC-2998 colon = test system: HCC-2998 colon
OVCAR-3 ovarian = test system: OVCAR-3 ovarian
SN12C renal = test system: SN12C renal
UO-31 renal = test system: UO-31 renal
SK-MEL-5 melanoma = test system: SK-MEL-5 melanoma
SF-539 CNS = test system: SF-539 CNS

## Cc1ccc2oc(=O)cc(C3c4ccc([nH]4)C(c4cc(=O)oc5ccc(C)cc45)c4ccc([nH]4)C(c4cc(=O)oc5ccc(C)cc45)c4ccc([nH]4)C(c4cc(=O)oc5ccc(C)cc45)c4ccc3[nH]4)c2c1 (stereo not given)
NCI-H522 lung
  GI50: 0.212 µM
  TGI: 0.796 µM
NCI-H23 lung
  GI50: 0.0574 µM
  TGI: 1.58 µM
U251 CNS
  GI50: 0.0369 µM
  TGI: 1.27 µM
M14 melanoma
  GI50: 0.0253 µM
  TGI: 0.0766 µM
HCC-2998 colon
  GI50: 0.188 µM
  TGI: 0.846 µM
OVCAR-3 ovarian
  GI50: 0.0225 µM
  TGI: 0.0533 µM
SN12C renal
  GI50: 0.0586 µM
  TGI: 1.74 µM
UO-31 renal
  GI50: 0.0364 µM
  TGI: 1.19 µM
SK-MEL-5 melanoma
  GI50: 0.032 µM
  TGI: 0.127 µM
SF-539 CNS
  GI50: 0.0239 µM
  TGI: 0.0669 µM

## CC(=O)[CH-]C(=O)c1ccccc1.CC(=O)[CH-]C(=O)c1ccccc1.CC[O-].O=C1C=C([O-])C(=O)c2ccccc21.[Ti+4]
NCI-H522 lung
  GI50: 10.6 µM
  TGI: 69.3 µM
NCI-H23 lung
  GI50: 10.8 µM
  TGI: > 100 µM
U251 CNS
  GI50: 32.4 µM
  TGI: > 100 µM
M14 melanoma
  GI50: 18 µM
  TGI: > 100 µM
HCC-2998 colon
  GI50: 23.1 µM
  TGI: > 100 µM
OVCAR-3 ovarian
  GI50: 42.6 µM
  TGI: > 100 µM
SN12C renal
  GI50: 97.9 µM
  TGI: > 100 µM
UO-31 renal
  GI50: > 100 µM
  TGI: > 100 µM
SK-MEL-5 melanoma
  GI50: 14 µM
  TGI: > 100 µM
SF-539 CNS
  GI50: > 100 µM
  TGI: > 100 µM

## O/N=C1/C(=C/c2ccc(Cl)cc2)CCCC1C(NO)c1ccc(Cl)cc1 (stereo not given)
NCI-H522 lung
  TGI: 62.8 µM
NCI-H23 lung
  TGI: 54 µM
U251 CNS
  TGI: 50.8 µM
M14 melanoma
  TGI: 33.8 µM
HCC-2998 colon
  TGI: 47.4 µM
OVCAR-3 ovarian
  TGI: 31 µM
SN12C renal
  TGI: 39.7 µM
UO-31 renal
  TGI: 63.4 µM
SK-MEL-5 melanoma
  TGI: 66.2 µM
SF-539 CNS
  TGI: 88.1 µM

## CCc1c(-c2coc(CC/C(C)=C/c3ccccc3)n2)oc(OC)c(C)c1=O
NCI-H522 lung
  TGI: 15.3 µM
NCI-H23 lung
  TGI: > 95.4 µM
U251 CNS
  TGI: > 53.9 µM
M14 melanoma
  TGI: > 61.4 µM
HCC-2998 colon
  TGI: > 100 µM
OVCAR-3 ovarian
  TGI: > 100 µM
SN12C renal
  TGI: > 62.2 µM
UO-31 renal
  TGI: > 53.1 µM
SK-MEL-5 melanoma
  TGI: > 46.9 µM
SF-539 CNS
  TGI: > 65 µM

## Cc1[nH]ccc2cc3nc4ccccc4c3cc12
NCI-H522 lung
  GI50: 2.22 µM
  TGI: 9.72 µM
NCI-H23 lung
  GI50: 2.55 µM
  TGI: 14.5 µM
U251 CNS
  GI50: 2.82 µM
  TGI: 12.4 µM
M14 melanoma
  GI50: 2.47 µM
  TGI: 11.1 µM
HCC-2998 colon
  GI50: 2.85 µM
  TGI: 13.3 µM
OVCAR-3 ovarian
  GI50: 3.04 µM
  TGI: 10.7 µM
SN12C renal
  GI50: 2.55 µM
  TGI: 12.5 µM
UO-31 renal
  GI50: 2.02 µM
  TGI: 8.47 µM
SK-MEL-5 melanoma
  GI50: 3.28 µM
  TGI: 13.6 µM
SF-539 CNS
  GI50: 3.07 µM
  TGI: 12.6 µM

## COc1ccc2nc(C3=CN(C4OC(CO)C(O)C(O)C4O)C4C=CC=CC34)sc2c1 (stereo not given)
NCI-H522 lung
  GI50: 24 µM
  TGI: 76.5 µM
NCI-H23 lung
  GI50: 33.9 µM
  TGI: > 100 µM
U251 CNS
  GI50: 28.5 µM
  TGI: > 100 µM
M14 melanoma
  GI50: 33 µM
  TGI: 93.8 µM
HCC-2998 colon
  GI50: 22.7 µM
  TGI: 53.1 µM
OVCAR-3 ovarian
  GI50: 87.5 µM
  TGI: > 100 µM
SN12C renal
  GI50: 29.7 µM
  TGI: 94.1 µM
UO-31 renal
  GI50: 41.1 µM
  TGI: > 100 µM
SK-MEL-5 melanoma
  GI50: 31.5 µM
  TGI: 80.7 µM
SF-539 CNS
  GI50: 29.3 µM
  TGI: 77.7 µM

## COc1cc(C(=C2SCCS2)c2nccc3cc(OC)c(OC)cc23)c([N+](=O)[O-])cc1OC
NCI-H522 lung
  TGI: > 100 µM
NCI-H23 lung
  TGI: > 100 µM
U251 CNS
  TGI: > 100 µM
M14 melanoma
  TGI: > 100 µM
HCC-2998 colon
  TGI: > 100 µM
OVCAR-3 ovarian
  TGI: > 100 µM
SN12C renal
  TGI: > 100 µM
UO-31 renal
  TGI: > 100 µM
SK-MEL-5 melanoma
  TGI: > 100 µM
SF-539 CNS
  TGI: > 100 µM

## CCCCCCCCCCC(CN(CC)CC)C(O)c1ccccc1 (stereo not given)
NCI-H522 lung
  GI50: 1.83 µM
  TGI: 3.8 µM
NCI-H23 lung
  GI50: 1.93 µM
  TGI: 3.74 µM
U251 CNS
  GI50: 1.86 µM
  TGI: 3.56 µM
M14 melanoma
  GI50: 1.74 µM
  TGI: 3.4 µM
HCC-2998 colon
  GI50: 1.81 µM
  TGI: 3.39 µM
OVCAR-3 ovarian
  GI50: 1.99 µM
  TGI: 3.78 µM
SN12C renal
  GI50: 2.11 µM
  TGI: 5.69 µM
UO-31 renal
  GI50: 1.56 µM
  TGI: 3.1 µM
SK-MEL-5 melanoma
  GI50: 1.48 µM
  TGI: 2.88 µM
SF-539 CNS
  GI50: 1.72 µM
  TGI: 3.3 µM

## COc1ccc(Cn2cc3c(c2-c2ccccc2)CCc2cncnc2-3)cc1
NCI-H522 lung
  GI50: 5.05 µM
  TGI: 21 µM
NCI-H23 lung
  GI50: 10.6 µM
  TGI: 39.3 µM
U251 CNS
  GI50: 5.47 µM
  TGI: 18 µM
M14 melanoma
  GI50: 4.2 µM
  TGI: 18.2 µM
HCC-2998 colon
  GI50: 11.9 µM
  TGI: 25.5 µM
OVCAR-3 ovarian
  GI50: 3.65 µM
  TGI: 12.5 µM
SN12C renal
  GI50: 5.85 µM
  TGI: 20.9 µM
UO-31 renal
  GI50: 10.3 µM
  TGI: 24.2 µM
SK-MEL-5 melanoma
  GI50: 3.72 µM
  TGI: 14.2 µM
SF-539 CNS
  GI50: 6 µM
  TGI: 18.7 µM

## O=C(Nn1c2c(sc1=NC1CC1)C(=O)c1ccccc1C2=O)c1cc2ccc1CCc1ccc(cc1)CC2
NCI-H522 lung
  GI50: 1.6 µM
  TGI: 4.69 µM
NCI-H23 lung
  GI50: 1.31 µM
  TGI: 4.32 µM
U251 CNS
  GI50: 2.41 µM
  TGI: 11.1 µM
M14 melanoma
  GI50: 1.33 µM
  TGI: 2.83 µM
HCC-2998 colon
  GI50: 2.34 µM
  TGI: 6.67 µM
OVCAR-3 ovarian
  GI50: 1.53 µM
  TGI: 4.42 µM
SN12C renal
  GI50: 1.34 µM
  TGI: 2.61 µM
UO-31 renal
  GI50: 0.85 µM
  TGI: 2.77 µM
SK-MEL-5 melanoma
  GI50: 1.43 µM
  TGI: 2.76 µM
SF-539 CNS
  GI50: 1.67 µM
  TGI: 3.06 µM
